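Step 1: Grow cells in 96-well plates. Step 2: Expose to compound for 48 hours at 5 concentrations. Step 3: Interpolate endpoints linearly; if unreached, use highest concentration. Here, GI50 denotes the concentration required for 50% inhibition of growth.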 Calls of active or inactive are those of the source. Rule as the data show it: active = GI50 up to about 1.1 µM and inactive = higher.
Tests used:
Experiment in all cases: NCI anticancer screen, dose series, 48 h
[1] = system: M19-MEL
[2] = system: XF498
[3] = system: DMS-114
[4] = system: KM-20L2
[5] = system: SNB-78
[6] = system: HOP-18
[7] = system: DLD-1
[8] = system: LXFL 529
[9] = system: RXF 631

Measured: GI50

CCOC(=O)C1Cc2ccc3c4c(ccc(c24)C1)CC(C(=O)OCC)C3
inactive: [1] > 100 µM | [2] > 100 µM | [3] > 100 µM | [4] > 100 µM | [5] > 100 µM | [6] > 100 µM | [7] > 100 µM

CCOC(=O)C1=C(Nc2ccccc2)SC/C1=N\NC(=O)Cc1ccccc1
inactive: [1] > 100 µM | [2] > 100 µM | [4] > 100 µM | [5] > 100 µM | [6] > 100 µM | [8] > 100 µM | [9] > 100 µM | [7] > 100 µM

CCOC(=O)NC(=O)c1cn(CC(=O)NCC(=O)NCC(=O)NCCCN2CCN(CCCNC(=O)CNC(=O)CNC(=O)Cn3cc(C(=O)NC(=O)OCC)c(=O)[nH]c3=O)CC2)c(=O)[nH]c1=O
inactive: [1] > 100 µM | [2] > 100 µM | [3] > 100 µM | [4] > 100 µM | [5] > 100 µM | [6] > 100 µM | [8] > 100 µM | [9] > 100 µM | [7] > 100 µM

COc1cc2c(cc1OC)C1(c3ccccc3)ON=C(c3ccccc3)N1CS2 (stereo not given)
inactive: [1] > 100 µM | [2] > 100 µM | [3] > 100 µM | [4] > 100 µM | [5] > 100 µM | [6] > 100 µM | [8] > 100 µM | [9] > 100 µM | [7] > 100 µM

CC1=C(SC#N)S(=O)(=O)N(c2ccccc2)C(C)=C1SC#N
inactive: [1] 29.5 µM | [2] 16.8 µM | [3] 5.92 µM | [5] 78.3 µM | [8] 22.4 µM | [7] 33.3 µM

O=C(Nc1ccc(Sc2ccc(/N=N/c3c(O)c(S(=O)(=O)O)cc4cc(S(=O)(=O)O)ccc34)cc2)cc1)c1ccc(/N=N/c2c(O)ccc3c(S(=O)(=O)O)cc(S(=O)(=O)O)cc23)cc1
inactive: [1] 16.6 µM | [2] 28.2 µM | [4] 58.7 µM | [5] 36.4 µM | [6] 33 µM | [8] 25.2 µM | [9] 41.3 µM | [7] 37.7 µM

O=C(NC12CC3CC(CC(C3)C1)C2)C(=O)c1c[nH]c2ccccc12
inactive: [1] 18.7 µM | [2] 13.1 µM | [3] 18 µM | [4] 5.94 µM | [5] 18 µM | [8] 13.4 µM

Cc1cn(C2CC(O)C(CO)O2)c(=O)[nH]c1=O (stereo not given)
inactive: [1] 1070 µM | [2] 263 µM | [3] 728 µM | [4] 3360 µM | [5] 3180 µM | [6] 4610 µM | [7] 2700 µM

CCCCCCCCCCCCCC(=O)OC(/C=C/C(C)C)C(O)C(O)C(OC)C(=O)NC1CCCCN(C)C1=O (stereo not given)
inactive: [1] 3.48 µM | [3] 1.2 µM | [4] 2.94 µM | [5] 4.8 µM | [6] 3.54 µM | [8] 2.97 µM | [9] 1.18 µM | [7] 1.56 µM

CCCCOP1(=O)CC(C)=C(Cl)C(C)(OC)C1 (stereo not given)
inactive: [1] > 100 µM | [2] > 100 µM | [4] > 100 µM | [5] > 100 µM | [8] 45.2 µM | [7] 44.8 µM

COc1ccc2c(=O)c([Se]c3coc4cc(OC)ccc4c3=O)coc2c1
inactive: [1] 28.3 µM | [2] > 100 µM | [3] 17.4 µM | [4] > 100 µM | [5] 22.7 µM | [6] > 100 µM | [8] 32.5 µM | [7] 36.6 µM

COc1ccc(CN(O)C2C(CO)OC(n3cc(I)c(=O)[nH]c3=O)C2O)cc1 (stereo not given)
inactive: [1] > 100 µM | [2] > 100 µM | [3] > 100 µM | [4] > 100 µM | [5] > 100 µM | [6] > 100 µM | [8] > 100 µM | [7] > 100 µM
